Data on 1 compound can be found in patent US12012390B2, “Flavone compounds for the treatment and prophylaxis of hepatitis B virus disease” (priority 2018, dated 2024).

SMILES strings stand for the structures.

As a reminder, the IC50 is the concentration needed to halve the response being measured.

In assay [1] the test system is cccDNA in HepDES19 cells. The experiment in a line: cccDNA Southern Blot assay. Type of assay: cell-based, HBV. As to conditions: 5 days' compound treatment, FIG. 1. As to the method:
HepDES19 cells were seeded at 4×10^6 cells per T150 in the culture medium (Dulbecco's Modified Eagle Medium: Nutrient Mixture F-12 [DMEM-F12, Gibco Cat. 11320-82], 10% Fetal Bovine Serum [FBS, Clontech Cat. 631101], 0.1 mM Non-Essential Amino Acids Solution [NEAA, Gibco Cat. 11140-050], 50 μg/mL Penicillin-Streptomycin [PS, Invitrogen Cat. 15140-163], 500 μg/mL Geneticin [G418, Invitrogen Cat. 10131-027]) in the absence of Tet for 8 days. These cells were seeded at the density of 1×10^6 cells per well in 6-well plate. At 24 hrs after seeding, serial dilutions of compounds made with DMSO (Sigma, Cat. D2650) were further diluted with the same culture medium as described above before they were added to the cells to reach desired final compound concentrations and 1% DMSO concentration. After 5 days' compound treatment, the cells growing in one well from 6-well plate were re-suspended with 500 μL re-suspension buffer (50 mM tris[hydroxymethyl]amino methane pH 7.5), 10 mM ethylenediaminetetraacetic acid (EDTA), 50 μg/mL RNase A [Qiagen, Cat. 158922]. 500 μL of 1.2% sodium dodecyl sulfate (SDS) was then added into the re-suspended cells to lyse the cells. After 15 minutes' incubation, 700 μL precipitation buffer (3M cesium chloride, 1M potassium acetate, 0.67M acetic acid) was added and the lysate was incubated at 4° C. for 2 h. […]

The test system of assay [2] is HBeAg level (surrogate marker for cccDNA) in HepDES19 cells. The experiment in a line: Engineered HepDES19 primary screen assay (HBeAg as surrogate marker for cccDNA). As to conditions: Hepatitis B virus, HepDES19, 120 h, read-out: IC50 (HBeAg) in HepDES19 primary screen assay, HepDES19 cells, 5 days incubation with compound, HBeAg by ELISA. Format: cell-based, HBV. The method, boiled down: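 HepDES19 cells were induced by Tet withdrawal for 8 days, then exposed to half-log compound dilutions (1% DMSO) for 5 days at 37° C. HBeAg, a cccDNA surrogate, was measured by ELISA; viability by CCK-8. IC50 from 4-parameter logistic fit.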
A general note: ELISA stands for enzyme-linked immunosorbent assay.

With `O=C(O)C1CC(OCCOc2ccc(-c3cc(=O)c4cccc(Cl)c4o3)cc2)C1` (centres unmarked) [Example 1, 3-[2-[4-(8-chloro-4-oxo-chromen-2-yl)phenoxy]ethoxy]cyclobutanecarboxylic acid], the “cccDNA level in cccDNA Southern Blot assay” value in assay [1] is listed as “dose-dependently reduced cccDNA level”. In addition, the IC50 in assay [2] came to 0.14 µM.
